Test results taken from ChEMBL document CHEMBL1121668, “(Phenylthio)phenylamine derivatives as potential antiinflammatory compounds” (J Med Chem, 1981).

What was measured:
Rattus norvegicus [1] = assay: Compound is evaluated for antiinflammatory activity using carrageenan-induced paw edema method in rat at a dose 5 mg/kg ip after 3h; format: functional; conditions: route intraperitoneal
[2] = Lethal dose is determined in mice (iv); format: toxicity, organism-based; conditions: mouse, in vivo
Rattus norvegicus [3] = assay: Compound is evaluated for antiinflammatory activity using carrageenan-induced paw edema method in rat at a dose 5 mg/kg ip after 2 hr; format: functional; conditions: route intraperitoneal
Rattus norvegicus [4] = assay: Compound is evaluated for antiinflammatory activity using carrageenan-induced paw edema method in rat at a dose 5 mg/kg ip after 1 hr; format: functional; conditions: route intraperitoneal
Rattus norvegicus [5] = assay: Compound is evaluated for antiinflammatory activity using carrageenan-induced paw edema method in rat at a dose 25 mg/kg ip after 1 hr; format: functional; conditions: route intraperitoneal
Rattus norvegicus [6] = assay: Compound is evaluated for antiinflammatory activity using carrageenan-induced paw edema method in rat at a dose 25 mg/kg ip after 2 hr; format: functional; conditions: route intraperitoneal
[7] = Lethal dose is determined in mice (po); format: toxicity, organism-based; conditions: mouse, in vivo
Rattus norvegicus [8] = assay: Compound is evaluated for antiinflammatory activity using carrageenan-induced paw edema method in rat at a dose 25 mg/kg ip after 3h; format: functional; conditions: route intraperitoneal
Rattus norvegicus [9] = assay: Compound is evaluated for antiinflammatory activity using carrageenan-induced paw edema method in rat at a dose 10 mg/kg ip after 3h; format: functional; conditions: route intraperitoneal
Rattus norvegicus [10] = assay: Compound is evaluated for antiinflammatory activity using carrageenan-induced paw edema method in rat at a dose 10 mg/kg ip after 1 hr; format: functional; conditions: route intraperitoneal
Rattus norvegicus [11] = assay: Compound is evaluated for antiinflammatory activity using carrageenan-induced paw edema method in rat at a dose 10 mg/kg ip after 2 hr; format: functional; conditions: route intraperitoneal
Rattus norvegicus [12] = assay: Compound is evaluated for antiinflammatory activity using carrageenan-induced paw edema method in rat at a dose 500 mg/kg ip after 3h; format: functional; conditions: route intraperitoneal
Rattus norvegicus [13] = assay: Compound is evaluated for antiinflammatory activity using carrageenan-induced paw edema method in rat at a dose 500 mg/kg ip after 1 hr; format: functional; conditions: route intraperitoneal
Rattus norvegicus [14] = assay: Compound is evaluated for antiinflammatory activity using carrageenan-induced paw edema method in rat at a dose 500 mg/kg ip after 2 hr; format: functional; conditions: route intraperitoneal
Rattus norvegicus [15] = assay: Compound is evaluated for antiinflammatory activity using carrageenan-induced paw edema method in rat at a dose 30 mg/kg ip after 2 hr; format: functional; conditions: route intraperitoneal
Rattus norvegicus [16] = assay: Compound is evaluated for antiinflammatory activity using carrageenan-induced paw edema method in rat at a dose 30 mg/kg ip after 1 hr; format: functional; conditions: route intraperitoneal
Rattus norvegicus [17] = assay: Compound is evaluated for antiinflammatory activity using carrageenan-induced paw edema method in rat at a dose 30 mg/kg ip after 3h; format: functional; conditions: route intraperitoneal
Rattus norvegicus [18] = assay: Compound is evaluated for antiinflammatory activity using carrageenan-induced paw edema method in rat at a dose 200 mg/kg po after 3h; format: functional
Rattus norvegicus [19] = assay: Compound is evaluated for antiinflammatory activity using carrageenan-induced paw edema method in rat at a dose 200 mg/kg po after 1 hr; format: functional
Rattus norvegicus [20] = assay: Compound is evaluated for antiinflammatory activity using carrageenan-induced paw edema method in rat at a dose 200 mg/kg po after 2 hr; format: functional

## CN(C)CC(=O)N(C)c1ccc(Sc2ccccc2)cc1
Rattus norvegicus [1]
  Reduction: 22%
[2]
  LD50: 50 mg/kg
Rattus norvegicus [3]
  Reduction: 14%
Rattus norvegicus [4]
  Reduction: 18%

## CN(C(=O)CN1CCCCC1)c1ccc(Sc2ccccc2)cc1
Rattus norvegicus [1]
  Reduction: 34%
[2]
  LD50: 25 mg/kg
Rattus norvegicus [3]
  Reduction: 29%
Rattus norvegicus [4]
  Reduction: 40%

## CCN(CC)CC(=O)Nc1ccc(Sc2ccccc2)cc1
Rattus norvegicus [5]
  Reduction: 30%
Rattus norvegicus [6]
  Reduction: 47%
[7]
  LD50: 275 mg/kg
[2]
  LD50: 45 mg/kg
Rattus norvegicus [8]
  Reduction: 22%

## CCN(CC)CC(=O)Nc1ccc(Sc2ccc(Cl)cc2)cc1
Rattus norvegicus [5]
  Reduction: 56%
Rattus norvegicus [6]
  Reduction: 74%
[7]
  LD50: 275 mg/kg
[2]
  LD50: 45 mg/kg
Rattus norvegicus [8]
  Reduction: 72%

## CN(C(=O)CN1CCOCC1)c1ccc(Sc2ccccc2)cc1
[2]
  LD50: 75 mg/kg
Rattus norvegicus [9]
  Reduction: 43%
Rattus norvegicus [10]
  Reduction: 55%
Rattus norvegicus [11]
  Reduction: 45%

## CN(C(=O)CN1CCCC1)c1ccc(Sc2ccccc2)cc1
Rattus norvegicus [1]
  Reduction: 23%
[2]
  LD50: 35 mg/kg
Rattus norvegicus [3]
  Reduction: 18%
Rattus norvegicus [4]
  Reduction: 18%

## CN(C(=O)c1ccc(Cl)cc1)c1ccc(Sc2ccccc2)cc1
Rattus norvegicus [12]
  Reduction: 48%
[2]
  LD50: > 1000 mg/kg
Rattus norvegicus [13]
  Reduction: 65%
Rattus norvegicus [14]
  Reduction: 60%

## CCN(CC)CC(=O)Nc1ccccc1Sc1ccc(Cl)cc1
Rattus norvegicus [15]
  Reduction: 63%
Rattus norvegicus [16]
  Reduction: 65%
Rattus norvegicus [17]
  Reduction: 68%
[7]
  LD50: 35 mg/kg
[2]
  LD50: 55 mg/kg

## CN(C(=O)C1CN(c2ccccc2)C(=O)C1=O)c1ccc(Sc2ccccc2)cc1 (stereo unspecified)
Rattus norvegicus [18]
  Reduction: 0%
[7]
  LD50: > 1000 mg/kg
Rattus norvegicus [19]
  Reduction: 36%
Rattus norvegicus [20]
  Reduction: 5%

## CN(C(=O)C1CC1)c1ccc(Sc2ccccc2)cc1
Rattus norvegicus [12]
  Reduction: 37%
[2]
  LD50: > 1000 mg/kg
Rattus norvegicus [13]
  Reduction: 57%
Rattus norvegicus [14]
  Reduction: 48%

## CCN(CC)CC(=O)N(C)c1ccc(Sc2ccc(Cl)cc2)cc1
[7]
  LD50: 175 mg/kg
[2]
  LD50: 45 mg/kg
Rattus norvegicus [9]
  Reduction: 0%
Rattus norvegicus [10]
  Reduction: 13%
Rattus norvegicus [11]
  Reduction: 15%

## COc1ccc2c(c1)c(CC(=O)O)c(C)n2C(=O)c1ccc(Cl)cc1 [INDOMETHACIN]
Rattus norvegicus [9]
  Reduction: 67%
Rattus norvegicus [10]
  Reduction: 61%
Rattus norvegicus [11]
  Reduction: 65%

## CN1CC(C(=O)N(C)c2ccc(Sc3ccccc3)cc2)C(=O)C1=O (stereo unspecified)
Rattus norvegicus [18]
  Reduction: 0%
[2]
  LD50: > 1000 mg/kg
Rattus norvegicus [19]
  Reduction: 36%
Rattus norvegicus [20]
  Reduction: 0%

## CC(=O)Oc1ccccc1C(=O)N(C)c1ccc(Sc2ccccc2)cc1
Rattus norvegicus [12]
  Reduction: 32%
[2]
  LD50: 1000 mg/kg
Rattus norvegicus [13]
  Reduction: 59%
Rattus norvegicus [14]
  Reduction: 55%

## CCN(CC)CC(=O)N(C)c1ccc(Sc2ccccc2)cc1
Rattus norvegicus [1]
  Reduction: 52%
[7]
  LD50: 140 mg/kg
[2]
  LD50: 30 mg/kg
Rattus norvegicus [3]
  Reduction: 50%
Rattus norvegicus [4]
  Reduction: 53%

## CN1CCN(CC(=O)N(C)c2ccc(Sc3ccccc3)cc2)CC1
[2]
  LD50: 75 mg/kg
Rattus norvegicus [9]
  Reduction: 38%
Rattus norvegicus [10]
  Reduction: 45%
Rattus norvegicus [11]
  Reduction: 30%

## CC(C)N1CC(C(=O)N(C)c2ccc(Sc3ccccc3)cc2)C(=O)C1=O (stereo unspecified)
Rattus norvegicus [18]
  Reduction: 18%
[7]
  LD50: > 1000 mg/kg
Rattus norvegicus [19]
  Reduction: 30%
Rattus norvegicus [20]
  Reduction: 26%

## CCOC(=O)C1=C(Nc2ccc(Sc3ccccc3)cc2)C(=O)N(C(C)C)C1
Rattus norvegicus [18]
  Reduction: 30%
[7]
  LD50: > 1000 mg/kg
Rattus norvegicus [19]
  Reduction: 22%
Rattus norvegicus [20]
  Reduction: 30%
